From the NIST ThermoML archive (doi:10.1016/j.tca.2010.05.014)

Assay: cn = amount concentration of the nth substance listed, in mol/dm3
Conditions: 101 kPa, Liquid; for viscosity: Capillary tube (Ostwald / Ubbelohde) method; for mass density: Vibrating tube method

O=C(O)CC(O)(CC(=O)O)C(=O)O [citric acid] + O
Conditions | mass density, c1 = 0.03 [kg/m3] | mass density, c1 = 0.05 [kg/m3] | mass density, c1 = 0.07 [kg/m3] | mass density, c1 = 0.1 [kg/m3] | viscosity, c1 = 0.03 [mPa·s] | viscosity, c1 = 0.05 [mPa·s] | viscosity, c1 = 0.07 [mPa·s] | viscosity, c1 = 0.1 [mPa·s]
298.15 K | 999.5 | 1000.9 | 1002.6 | 1004.8 | 0.8766 | 0.8921 | 0.9048 | 0.9254
308.15 K | 996.3 | 997.7 | 999.3 | 1001.8 | 0.7136 | 0.7253 | 0.7595 | 0.7855
318.15 K | 992.5 | 993.8 | 995.4 | 997.9 | 0.6253 | 0.6261 | 0.6527 | 0.6766
